Tests used:
human MER = biological target: T1, human MER (Homo sapiens, UniProt Q12866); assay: HTRF KinEASE-TK biochemical potency assay, MER; conditions: 1 nM MER, 700 μM ATP, 800 nM TK Substrate-biotin
T1 construct: purchased Invitrogen
T1 sequence (Q12866 21-999): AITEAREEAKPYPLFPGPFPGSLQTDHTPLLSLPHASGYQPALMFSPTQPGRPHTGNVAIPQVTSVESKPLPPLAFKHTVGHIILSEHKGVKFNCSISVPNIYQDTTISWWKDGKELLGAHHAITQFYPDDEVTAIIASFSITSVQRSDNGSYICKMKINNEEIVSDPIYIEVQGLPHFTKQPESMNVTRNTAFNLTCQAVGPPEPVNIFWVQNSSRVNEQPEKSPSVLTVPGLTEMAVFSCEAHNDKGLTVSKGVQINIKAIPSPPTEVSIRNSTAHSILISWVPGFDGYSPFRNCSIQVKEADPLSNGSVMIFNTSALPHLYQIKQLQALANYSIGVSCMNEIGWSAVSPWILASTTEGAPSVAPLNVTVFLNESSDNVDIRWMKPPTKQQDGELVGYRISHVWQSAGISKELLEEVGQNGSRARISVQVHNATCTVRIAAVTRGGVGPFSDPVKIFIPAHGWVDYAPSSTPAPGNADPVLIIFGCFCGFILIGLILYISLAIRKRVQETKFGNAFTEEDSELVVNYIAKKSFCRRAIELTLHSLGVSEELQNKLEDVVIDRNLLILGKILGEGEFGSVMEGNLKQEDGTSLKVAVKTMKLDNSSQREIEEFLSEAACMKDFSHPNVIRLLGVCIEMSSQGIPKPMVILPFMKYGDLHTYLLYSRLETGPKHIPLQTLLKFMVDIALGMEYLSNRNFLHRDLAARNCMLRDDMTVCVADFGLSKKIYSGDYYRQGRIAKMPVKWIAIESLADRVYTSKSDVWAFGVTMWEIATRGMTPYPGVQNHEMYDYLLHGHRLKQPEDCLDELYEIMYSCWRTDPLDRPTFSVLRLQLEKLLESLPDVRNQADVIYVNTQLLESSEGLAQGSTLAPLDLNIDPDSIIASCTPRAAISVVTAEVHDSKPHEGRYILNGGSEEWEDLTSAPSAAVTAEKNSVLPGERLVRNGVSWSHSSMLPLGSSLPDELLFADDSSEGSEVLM
Procedure, shortened: (§1)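 Recombinant human kinase preincubated 1 h at RT with compound, then reacted 2 h at RT with final 5 nM AXL or 1 nM TYRO3/MER, 800 nM TK Substrate-biotin and 700 μM ATP in HEPES pH 7.4, 10 mM MgCl2, 1% DMSO. Phosphorylation read by HTRF 665/620 ratio, expressed as percent activity.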

Axl = biological target: T2, Axl (Homo sapiens, UniProt P30530); assay: HTRF KinEASE-TK biochemical potency assay, AXL; parameters: purchased Invitrogen; conditions: 5 nM AXL, 700 μM ATP, 800 nM TK Substrate-biotin
T2 sequence (P30530 26-894): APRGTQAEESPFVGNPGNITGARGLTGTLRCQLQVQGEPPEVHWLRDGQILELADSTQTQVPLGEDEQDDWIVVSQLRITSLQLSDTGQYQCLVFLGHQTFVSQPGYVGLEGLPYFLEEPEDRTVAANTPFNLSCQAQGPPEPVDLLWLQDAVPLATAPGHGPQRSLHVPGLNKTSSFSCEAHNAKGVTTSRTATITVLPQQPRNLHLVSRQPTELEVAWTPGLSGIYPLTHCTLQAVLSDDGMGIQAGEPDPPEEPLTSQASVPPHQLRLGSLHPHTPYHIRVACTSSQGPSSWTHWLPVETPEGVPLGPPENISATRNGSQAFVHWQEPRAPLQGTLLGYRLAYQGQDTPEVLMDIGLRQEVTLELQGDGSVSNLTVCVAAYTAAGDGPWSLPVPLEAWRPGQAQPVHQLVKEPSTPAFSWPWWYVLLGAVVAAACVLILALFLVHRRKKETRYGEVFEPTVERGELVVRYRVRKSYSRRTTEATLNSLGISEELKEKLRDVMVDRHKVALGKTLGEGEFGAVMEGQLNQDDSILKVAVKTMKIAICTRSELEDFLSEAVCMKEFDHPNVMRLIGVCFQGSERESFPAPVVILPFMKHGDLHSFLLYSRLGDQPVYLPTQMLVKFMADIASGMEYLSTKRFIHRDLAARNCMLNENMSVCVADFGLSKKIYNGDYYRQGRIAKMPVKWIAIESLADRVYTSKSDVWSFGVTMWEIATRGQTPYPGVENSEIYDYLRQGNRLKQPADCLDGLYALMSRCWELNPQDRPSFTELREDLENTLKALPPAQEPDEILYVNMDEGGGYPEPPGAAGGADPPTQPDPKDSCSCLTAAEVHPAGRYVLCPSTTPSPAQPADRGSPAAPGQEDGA
Procedure, shortened: as §1

Row | SMILES | IC50 (human MER) | IC50 (Axl)
1 | O=C([C@H]1CCCN1)N1CCc2ccc(-c3cnc4[nH]nc(-c5ccc(S(=O)(=O)C6CC6)cc5)c4c3)cc2CC1 [Example 113, 7-{3-[4-(Cyclopropanesulfonyl)phenyl]-1H-pyrazolo[3,4-b]pyridin-5-yl}-3-[(2R)-pyrrolidine-2-carbonyl]-2,3,4,5-tetrahydro-1H-3-benzazepine] | > 1000 nM | < 100 nM
2 | COc1cc(-c2n[nH]c3ncc(-c4ccc5c(c4)CCC(C)(N4CCC[C@H]4C)CC5)cc23)ccc1OC[C@H]1COCCO1 (stereo partly drawn) [Example 114, (2R)-1-{2-[3-(4-{[(2R)-1,4-Dioxan-2-yl]methoxy}-3-methoxyphenyl)-1H-pyrazolo[3,4-b]pyridin-5-yl]-7-methyl-6,7,8,9-tetrahydro-5H-benzo[7]annulen-7-yl}-2-methylpyrrolidine] | > 1000 nM | < 100 nM
3 | C[C@@H]1CCCN1C1(C)CCc2ccc(-c3cnc4[nH]nc(-c5ccc(C(=O)N[C@H]6CCOC6)cc5)c4c3)cc2CC1 (stereo partly drawn) [Example 117, 4-(5-{7-Methyl-7-[(2R)-2-methylpyrrolidin-1-yl]-6,7,8,9-tetrahydro-5H-benzo[7]annulen-2-yl}-1H-pyrazolo[3,4-b]pyridin-3-yl)-N-[(3S)-oxolan-3-yl]benzamide] | > 1000 nM | < 100 nM
4 | C[C@@H]1CCCN1C1(C)CCc2ccc(-c3cnc4[nH]nc(-c5ccc(C(=O)N6CCCC6)cc5)c4c3)cc2CC1 (stereo partly drawn) [Example 118, (2R)-2-Methyl-1-(7-methyl-2-{3-[4-(pyrrolidine-1-carbonyl)phenyl]-1H-pyrazolo[3,4-b]pyridin-5-yl}-6,7,8,9-tetrahydro-5H-benzo[7]annulen-7-yl)pyrrolidine] | > 1000 nM | < 100 nM
5 | Cc1cc(-c2n[nH]c3ncc(-c4ccc5c(c4)CCN(C4CC4)CC5)cc23)ccc1C(=O)N1CCNCC1 [Example 119, 3-Cyclopropyl-7-{3-[3-methyl-4-(piperazine-1-carbonyl)phenyl]-1H-pyrazolo[3,4-b]pyridin-5-yl}-2,3,4,5-tetrahydro-1H-3-benzazepine] | > 1000 nM | < 100 nM
6 | CC1(N2CCc3ccc(-c4cnc5[nH]nc(-c6ccc(S(=O)(=O)C7CC7)cc6)c5c4)cc3CC2)CCCC1 [Example 120, 7-{3-[4-(Cyclopropanesulfonyl)phenyl]-1H-pyrazolo[3,4-b]pyridin-5-yl}-3-(1-methylcyclopentyl)-2,3,4,5-tetrahydro-1H-3-benzazepine] | > 1000 nM | < 100 nM
7 | O=C1OCCN1c1ccc(-c2n[nH]c3ncc(-c4ccc5c(c4)CC[C@@H](N4C6COCC4C6)CC5)cc23)cc1 [Example 121, 3-(4-{5-[(7S)-7-{3-oxa-6-azabicyclo[3.1.1]heptan-6-yl}-6,7,8,9-tetrahydro-5H-benzo[7]annulen-2-yl]-2H-pyrazolo[3,4-b]pyridin-3-yl}phenyl)-1,3-oxazolidin-2-one] | > 1000 nM | < 100 nM
8 | O=C1CCCN1c1ccc(-c2n[nH]c3ncc(-c4ccc5c(c4)CC[C@@H](N4C6COCC4C6)CC5)cc23)cc1 [Example 122, 1-(4-{5-[(7S)-7-{3-oxa-6-azabicyclo[3.1.1]heptan-6-yl}-6,7,8,9-tetrahydro-5H-benzo[7]annulen-2-yl]-2H-pyrazolo[3,4-b]pyridin-3-yl}phenyl)pyrrolidin-2-one] | > 1000 nM | < 100 nM
9 | COCCOc1ccc(-c2n[nH]c3ncc(-c4ccc5c(c4)CC[C@@H](N4C6COCC4C6)CC5)cc23)cc1 [Example 123, 6-[(7S)-2-{3-[4-(2-methoxyethoxy)phenyl]-2H-pyrazolo[3,4-b]pyridin-5-yl}-6,7,8,9-tetrahydro-5H-benzo[7]annulen-7-yl]-3-oxa-6-azabicyclo[3.1.1]heptane] | > 1000 nM | < 100 nM

More lines, now with the values ahead:

Row | IC50 (human MER) | IC50 (Axl) | SMILES
10 | > 1000 nM | < 100 nM | COCCNCc1ccc(-c2n[nH]c3ncc(-c4ccc5c(c4)CCC(C)(N4CCC[C@H]4C)CC5)cc23)cc1 (stereo partly drawn) [Example 108, (2-Methoxyethyl)({[4-(5-{7-methyl-7-[(2R)-2-methylpyrrolidin-1-yl]-6,7,8,9-tetrahydro-5H-benzo[7]annulen-2-yl}-1H-pyrazolo[3,4-b]pyridin-3-yl)phenyl]methyl})amine]
11 | > 1000 nM | < 100 nM | C[C@@H]1CCCN1C1CCc2ccc(-c3cnc4[nH]nc(-c5ccc(S(=O)(=O)C6CC6)cc5)c4c3)cc2C(C)(C)C1 (stereo partly drawn) [Example 109, (2R)-1-(2-{3-[4-(Cyclopropanesulfonyl)phenyl]-1H-pyrazolo[3,4-b]pyridin-5-yl}-9,9-dimethyl-6,7,8,9-tetrahydro-5H-benzo[7]annulen-7-yl)-2-methylpyrrolidine]
12 | 100 to 1000 nM | < 100 nM | COCCOc1ccc(-c2n[nH]c3ncc(-c4ccc5c(c4)CCC(C)(N4CCC[C@H]4C)CC5)cc23)cc1 (stereo partly drawn) [Example 110, 3-(4-(2-Methoxyethoxy)phenyl)-5-(7-methyl-7-((R)-2-methylpyrrolidin-1-yl)-6,7,8,9-tetrahydro-5H-benzo[7]annulen-2-yl)-1H-pyrazolo[3,4-b]pyridine]
13 | 100 to 1000 nM | < 100 nM | COCCS(=O)(=O)c1ccc(-c2n[nH]c3ncc(-c4ccc5c(c4)CCC(C)(N4CCC[C@H]4C)CC5)cc23)cc1 (stereo partly drawn) [Example 111, (2R)-1-(2-{3-[4-(2-Methoxyethanesulfonyl)phenyl]-1H-pyrazolo[3,4-b]pyridin-5-yl}-7-methyl-6,7,8,9-tetrahydro-5H-benzo[7]annulen-7-yl)-2-methylpyrrolidine]
14 | > 1000 nM | < 100 nM | O=C([C@@H]1CCCN1)N1CCc2ccc(-c3cnc4[nH]nc(-c5ccc(S(=O)(=O)C6CC6)cc5)c4c3)cc2CC1 [Example 112, 7-{3-[4-(Cyclopropanesulfonyl)phenyl]-1H-pyrazolo[3,4-b]pyridin-5-yl}-3-[(2S)-pyrrolidine-2-carbonyl]-2,3,4,5-tetrahydro-1H-3-benzazepine]
15 | 100 to 1000 nM | < 100 nM | CC1(N[C@H]2CCOC2)CCc2ccc(-c3cnc4[nH]nc(-c5ccc(S(=O)(=O)C6CC6)cc5)c4c3)cc2CC1 (stereo partly drawn) [Example 115, (3S)-N-(2-{3-[4-(Cyclopropanesulfonyl)phenyl]-1H-pyrazolo[3,4-b]pyridin-5-yl}-7-methyl-6,7,8,9-tetrahydro-5H-benzo[7]annulen-7-yl)oxolan-3-amine]
16 | 100 to 1000 nM | < 100 nM | CC(C)(C)S(=O)(=O)c1ccc(-c2n[nH]c3ncc(-c4ccc5c(c4)CC[C@@H](N4C6COCC4C6)CC5)cc23)cc1 [Example 124, 6-[(7S)-2-{3-[4-(2-methylpropane-2-sulfonyl)phenyl]-2H-pyrazolo[3,4-b]pyridin-5-yl}-6,7,8,9-tetrahydro-5H-benzo[7]annulen-7-yl]-3-oxa-6-azabicyclo[3.1.1]heptane]
17 | 100 to 1000 nM | < 100 nM | CN(C)C(=O)c1ccc(-c2n[nH]c3ncc(-c4ccc5c(c4)CC[C@@H](N4C6COCC4C6)CC5)cc23)cc1 [Example 125, N,N-Dimethyl-4-{5-[(7S)-7-{3-oxa-6-azabicyclo[3.1.1]heptan-6-yl}-6,7,8,9-tetrahydro-5H-benzo[7]annulen-2-yl]-2H-pyrazolo[3,4-b]pyridin-3-yl}benzamide]
